The results in this text go back to patent publication US12145947B2, “Pyrimidine based modulators and uses thereof” (Quanta Therapeutics, Inc., priority 2022, dated 2024).

This assay has as its target T1, GST-tagged KRAS-G12D (2-169) (Homo sapiens, UniProt P01116, G12D).
T1 construct: GST-tagged KRAS-G12D (2-169, Reaction Biology, MSC-11-539); purchased Reaction Biology MSC-11-539 (KRAS G12D); MSC-11-502 (SOS1cat)
The assay can be described thus: Nucleotide exchange assay (NEA), SOS-mediated, HTRF, KRAS G12D. As to conditions: Table 4; IC50 extracted at 30 min. It is filed as biochemical. In short, it runs like this:
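IC50 values come from 4-parameter fits at the 30 min time point of an SOS-driven exchange read by HTRF, normalised to DMSO (0%) and SOS-free blank (100%). Final reaction: 5 nM GST-KRAS-G12D (2-169), 20 nM SOScat, 150 nM fluorescent GTP-DY-647P1, after 1 h RT compound preincubation with KRAS and Tb-cryptate anti-GST.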
(In general: In TR-FRET formats the signal depends on donor and acceptor labels being close together.)

T1 sequence (P01116 2-169 isoform P01116-2 G12D): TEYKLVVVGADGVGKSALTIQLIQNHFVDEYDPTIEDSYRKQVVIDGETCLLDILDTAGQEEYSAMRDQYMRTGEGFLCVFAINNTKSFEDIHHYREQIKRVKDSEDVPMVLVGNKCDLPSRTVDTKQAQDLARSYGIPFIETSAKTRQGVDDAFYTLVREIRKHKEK

Broadly, the IC50 is the concentration needed to halve the response being measured. Read a high IC50 as lower potency. Turning to `N#Cc1c(N2CCCCCC2)nc(OC[C@@]23CCCN2C[C@H](F)C3)nc1N1CC2(CCc3sc(N)c(C#N)c32)C1` [Compound 19, 2-amino-1′-[6-(azepan-1-yl)-5-cyano-2-[[(2R)-2-fluoro-1,2,3,5,6,7-hexahydropyrrolizin-8-yl]methoxy]pyrimidin-4-yl]spiro[5,6-dihydrocyclopenta[b]thiophene-4,3′-azetidine]-3-carbonitrile], the IC50 was 10 to 100 nM.
For `CS(=O)(=O)c1cc2n(n1)CCCN(c1nc(OC[C@@]34CCCN3C[C@H](F)C4)nc(N3CC4(CCc5sc(N)c(C#N)c54)C3)c1C#N)C2` [Compound 21, 2-amino-1′-[5-cyano-2-[[(2R,8S)-2-fluoro-1,2,3,5,6,7-hexahydropyrrolizin-8-yl]methoxy]-6-(2-methylsulfonyl-4,6,7,8-tetrahydropyrazolo[1,5-a][1,4]diazepin-5-yl)pyrimidin-4-yl]spiro[5,6-dihydrocyclopenta[b]thiophene-4,3′-azetidine]-3-carbonitrile] the value was less than 10 nM; for `N#Cc1c(N)sc2c1C1(CC2)CN(c2nc(OCC3(CN4CCOCC4)CC3)nc(N3C[C@H]4CC[C@@H](C3)N4)c2F)C1` [Compound 22, 2-amino-1′-[6-(3,8-diazabicyclo[3.2.1]octan-3-yl)-5-fluoro-2-[[1-(morpholinomethyl)cyclopropyl]methoxy]pyrimidin-4-yl]spiro[5,6-dihydrocyclopenta[b]thiophene-4,3′-azetidine]-3-carbonitrile], less than 10 nM.
For `N#Cc1c(N2C[C@H]3CC[C@@H](C2)N3)nc(OCC2(CN3CCOCC3)CC2)nc1N1CC2(CCc3sc(N)nc32)C1` [Compound 23, 4-(2-aminospiro[5,6-dihydrocyclopenta[d]thiazole-4,3′-azetidine]-1′-yl)-2-[[1-(morpholinomethyl)cyclopropyl]methoxy]-6-[(1R,5S)-3,8-diazabicyclo[3.2.1]octan-3-yl]pyrimidine-5-carbonitrile] the value was less than 10 nM; for `N#Cc1cc2n(n1)CCCN(c1nc(OC[C@@]34CCCN3C[C@H](F)C4)nc(N3CC4(CCc5sc(N)c(C#N)c54)C3)c1C#N)C2` [Compound 24, 2-amino-1′-[5-cyano-6-(2-cyano-4,6,7,8-tetrahydropyrazolo[1,5-a][1,4]diazepin-5-yl)-2-[[(2R,8S)-2-fluoro-1,2,3,5,6,7-hexahydropyrrolizin-8-yl]methoxy]pyrimidin-4-yl]spiro[5,6-dihydrocyclopenta[b]thiophene-4,3′-azetidine]-3-carbonitrile], 10 to 100 nM; for `N#Cc1c(N2C[C@H]3CC[C@@H](C2)N3)nc(OC[C@@]23CCCN2C[C@H](F)C3)nc1N1CC2(CCc3sc(N)c(C#N)c32)C1` [Compound 25, 2-amino-1′-[5-cyano-6-(3,8-diazabicyclo[3.2.1]octan-3-yl)-2-[[(2R,8S)-2-fluoro-1,2,3,5,6,7-hexahydropyrrolizin-8-yl]methoxy]pyrimidin-4-yl]spiro[5,6-dihydrocyclopenta[b]thiophene-4,3′-azetidine]-3-carbonitrile], less than 10 nM.
For `CN(C)CC(F)(F)COc1nc(N2C[C@H]3CC[C@@H](C2)N3)c(C#N)c(N2CC3(CCc4sc(N)c(C#N)c43)C2)n1` [Compound 26, 2-amino-1′-[5-cyano-6-(3,8-diazabicyclo[3.2.1]octan-3-yl)-2-[3-(dimethylamino)-2,2-difluoro-propoxy]pyrimidin-4-yl]spiro[5,6-dihydrocyclopenta[b]thiophene-4,3′-azetidine]-3-carbonitrile] the value was less than 10 nM; for `C[C@@]1(O)CCCN(c2nc(OC[C@@]34CCCN3C[C@H](F)C4)nc(N3CC4(CCc5sc(N)c(C#N)c54)C3)c2C#N)C1` [Compound 27, 2-amino-1′-[5-cyano-2-[[(2R,8S)-2-fluoro-1,2,3,5,6,7-hexahydropyrrolizin-8-yl]methoxy]-6-[(3R)-3-hydroxy-3-methyl-1-piperidyl]pyrimidin-4-yl]spiro[5,6-dihydrocyclopenta[b]thiophene-4,3′-azetidine]-3-carbonitrile], 10 to 100 nM.
The compound `Cn1c(-c2cc3n(n2)CCCN(c2nc(OC[C@@]45CCCN4C[C@H](F)C5)nc(N4CC5(CCc6sc(N)c(C#N)c65)C4)c2C#N)C3)nc2ccccc21` [Compound 29, 2-amino-1′-[5-cyano-6-[2-(1-methylbenzimidazol-2-yl)-4,6,7,8-tetrahydropyrazolo[1,5-a][1,4]diazepin-5-yl]-2-[[(2R,8S)-2-fluoro-1,2,3,5,6,7-hexahydropyrrolizin-8-yl]methoxy]pyrimidin-4-yl]spiro[5,6-dihydrocyclopenta[b]thiophene-4,3′-azetidine]-3-carbonitrile] came in with an IC50 of 10 to 100 nM.
For `Cn1c(-c2nn3c(c2Cl)CN(c2nc(OC[C@@]45CCCN4C[C@H](F)C5)nc(N4CC5(CCc6sc(N)c(C#N)c65)C4)c2C#N)CCC3)nc2ccccc21` [Compound 30] the value was less than 10 nM.
The same measure for `Cn1c(-c2nn3c(c2Cl)CN(c2nc(OC[C@@]45CCCN4C[C@H](F)C5)nc(N4CC5(CCc6sc(N)c(C#N)c65)C4)c2C#N)CCC3)nc2c(F)cccc21` [Compound 32, 2-amino-1′-[6-[3-chloro-2-(4-fluoro-1-methyl-benzimidazol-2-yl)-4,6,7,8-tetrahydropyrazolo[1,5-a][1,4]diazepin-5-yl]-5-cyano-2-[[(2R,8S)-2-fluoro-1,2,3,5,6,7-hexahydropyrrolizin-8-yl]methoxy]pyrimidin-4-yl]spiro[5,6-dihydrocyclopenta[b]thiophene-4,3′-azetidine]-3-carbonitrile]: less than 10 nM; for `N#Cc1c(N2CCCC(C#N)CC2)nc(OC[C@@]23CCCN2C[C@H](F)C3)nc1N1CC2(CCc3sc(N)c(C#N)c32)C1` (stereo partly drawn) [Compound 33, 2-amino-1′-[5-cyano-6-(4-cyanoazepan-1-yl)-2-[[(2R,8S)-2-fluoro-1,2,3,5,6,7-hexahydropyrrolizin-8-yl]methoxy]pyrimidin-4-yl]spiro[5,6-dihydrocyclopenta[b]thiophene-4,3′-azetidine]-3-carbonitrile]: 10 to 100 nM.
For `N#Cc1c(N2C[C@H]3CC[C@@H](C2)N3)nc(OCC2(CN3CCC(F)(F)CC3)CC2)nc1N1CC2(CCc3sc(N)c(C#N)c32)C1` [Compound 34, 2-amino-1′-[5-cyano-6-(3,8-diazabicyclo[3.2.1]octan-3-yl)-2-[[1-[(4,4-difluoro-1-piperidyl)methyl]cyclopropyl]methoxy]pyrimidin-4-yl]spiro[5,6-dihydrocyclopenta[b]thiophene-4,3′-azetidine]-3-carbonitrile] the value was less than 10 nM; for `N#Cc1c(N2CCCC(O)CC2)nc(OC[C@@]23CCCN2C[C@H](F)C3)nc1N1CC2(CCc3sc(N)c(C#N)c32)C1` (stereo partly drawn) [Compound 40, 2-amino-1′-[5-cyano-6-(4-hydroxyazepan-1-yl)-2-[[(2R,8S)-2-fluoro-1,2,3,5,6,7-hexahydropyrrolizin-8-yl]methoxy]pyrimidin-4-yl]spiro[5,6-dihydrocyclopenta[b]thiophene-4,3′-azetidine]-3-carbonitrile], 10 to 100 nM.
As to `N#Cc1c(N2C[C@H]3CC[C@@H](C2)N3)nc(OCC2(CN3CCOCC3)CC2)nc1N1CC2(CCCc3sc(N)c(C#N)c32)C1` [Compound 41, 2-amino-1′-[5-cyano-2-[[1-(morpholinomethyl)cyclopropyl]methoxy]-6-[(1R,5S)-3,8-diazabicyclo[3.2.1]octan-3-yl]pyrimidin-4-yl]spiro[6,7-dihydro-5H-benzothiophene-4,3′-azetidine]-3-carbonitrile], the IC50 was less than 10 nM.
